Measurements: US20170304388A1, “NEW INDICATION OF CARDIOVASCULAR DRUGS FOR PREPARATION OF CANCER INHIBITION PHARMACEUTICAL COMPOSITION” (LAUNX BIOMEDICAL CO., LTD., priority 2014, published 2017)
Where a name gives a salt, the structure may show the parent alone. Read-outs that look alike come from different tables or passages of the source.

Key:
Assay type in all cases: cell-based
[1] = system: A375 (Amelanotic Melanoma); experiment: Cell viability analysis (WST-1), A375; conditions: Homo sapiens, WST-1, OD450 nm, lower viability = better inhibition, read-out: survival rate (viability) of cancer cells, A375
[2] = system: HCT116 (Colorectal Carcinoma); experiment: Cell viability analysis (WST-1), HCT116; conditions: Homo sapiens, HCT-116, 72 h, Table 3, drug 10 μM, WST-1, OD450 nm, read-out: survival rate (viability) of cancer cells, HCT116 (WT)
[3] = system: HepG2 (Hepatocellular Carcinoma); experiment: Cell viability analysis (WST-1), HepG2; conditions: Homo sapiens, WST-1, OD450 nm, read-out: survival rate (viability) of cancer cells, HepG2
[4] = system: HeLa (Cervix Adenocarcinoma); experiment: Cell viability analysis (WST-1), HeLa; conditions: Homo sapiens, HeLa, WST-1, OD450 nm, read-out: survival rate (viability) of cancer cells, HeLa
[5] = system: AGS (Gastric Adenocarcinoma); experiment: Cell viability analysis (WST-1), AGS; conditions: WST-1, OD450 nm, read-out: survival rate (viability) of cancer cells, AGS
[6] = system: H1650 (Lung Adenocarcinoma); experiment: Cell viability analysis (WST-1), H1650; conditions: Homo sapiens, WST-1, OD450 nm, read-out: survival rate (viability) of cancer cells, H1650
[7] = system: MKN-45 (Gastric Adenocarcinoma); experiment: Cell viability analysis (WST-1), MKN-45; conditions: Homo sapiens, WST-1, OD450 nm, read-out: survival rate (viability) of cancer cells, MKN-45
[8] = system: TSGH-8301 (Urinary Bladder Carcinoma); experiment: Cell viability analysis (WST-1), TSGH-8301; conditions: WST-1, OD450 nm, read-out: survival rate (viability) of cancer cells, TSGH
[9] = system: A549 (Lung Adenocarcinoma); experiment: Cell viability analysis (WST-1), A549; conditions: Homo sapiens, WST-1, OD450 nm, read-out: survival rate (viability) of cancer cells, A549
[10] = system: MCF7 (Mammary Gland, Adenocarcinoma); experiment: Cell viability analysis (WST-1), MCF7; conditions: Homo sapiens, WST-1, OD450 nm, read-out: survival rate (viability) of cancer cells, MCF7
[11] = system: PC3 (Prostate Adenocarcinoma); experiment: Cell viability analysis (WST-1), PC3; conditions: WST-1, OD450 nm, read-out: survival rate (viability) of cancer cells, PC3
[12] = system: LoVo (Colorectal Adenocarcinoma); experiment: Cell viability analysis (WST-1), LoVo; conditions: Homo sapiens, LoVo, WST-1, OD450 nm, read-out: survival rate (viability) of cancer cells, LoVo
[13] = system: HL-60 (Acute Promyelocytic Leukemia); experiment: Cell viability analysis (WST-1), HL-60; conditions: Homo sapiens, HL-60; Table 3; drug 10 μM, 72 hours, WST-1, OD450 nm; read-out: survival rate (viability) of cancer cells, HL-60
cancer cell lines = experiment: Growth inhibitory effects on the panel of cancer cell lines; conditions: drug 10 μM, 72 hours; for Numbers of inhibitory effect on cancer cell line: count of cancer cell lines inhibited; for inhibition effect on different cancer cell lines (in words): WST-1
[14] = A-375, 72 h, Table 3, drug 10 μM
[15] = HepG2, 72 h, Table 3, drug 10 μM
[16] = NCI-H1650, 72 h, Table 3, drug 10 μM
[17] = MKN-45, 72 h, Table 3, drug 10 μM
[18] = A549, 72 h, Table 3, drug 10 μM
[19] = MCF7, 72 h, Table 3, drug 10 μM

SMILES	viability at 10 µM [1, 14] [%]	viability at 10 µM [2] [%]	viability at 10 µM [3, 15] [%]	viability at 10 µM ([4]; 72 h, Table 3, drug 10 μM) [%]	viability at 10 µM ([5]; 72 h, Table 3, drug 10 μM) [%]	viability at 10 µM [6, 16] [%]	viability at 10 µM [7, 17] [%]	viability at 10 µM ([8]; 72 h, Table 3, drug 10 μM) [%]	viability at 10 µM [9, 18] [%]	viability at 10 µM [10, 19] [%]	viability at 10 µM ([11]; 72 h, Table 3, drug 10 μM) [%]	viability at 10 µM ([12]; 72 h, Table 3, drug 10 μM) [%]	viability at 10 µM [13] [%]	Numbers of inhibitory effect on cancer cell line (cancer cell lines)	inhibition effect on different cancer cell lines (in words) (cancer cell lines)	other results
Cc1cnc(C(=O)O)c[n+]1[O-] [Acipimox]	124	79.4	99.8	87.6	87.5	89.6	80.2	99.8	108	75.8	94.5	77.4	102	0	significant inhibition effect	–
CCN(CC)CCOC(=O)C(c1ccccc1)c1ccccc1 [Adiphenine HCl]	87.6	134	95.5	96.4	109	119	95.7	82	86.8	103	102	95.7	105	0	significant inhibition effect	–
COCCCOc1cc(C[C@@H](C[C@H](N)[C@@H](O)C[C@H](C(=O)NCC(C)(C)C(N)=O)C(C)C)C(C)C)ccc1OC [Aliskiren hemifumarate]	91.2	97.2	94.2	108	81.8	79.8	85.1	73.3	92	99.1	89	99.5	98.5	0	significant inhibition effect	–
CCOC(=O)[C@H](CCc1ccccc1)N[C@H]1CCc2ccccc2N(CC(=O)O)C1=O [Benazepril hydrochloride]	104	60	93	75.9	76.7	61.6	103	77.5	81.8	126	80.7	96	93.6	0	significant inhibition effect	–
CC(=O)Oc1ccc(C(c2ccc(OC(C)=O)cc2)c2ccccn2)cc1 [Bisacodyl]	88	122	100	89.2	107	93.6	132	104	66.7	65	83.7	85.5	96	0	significant inhibition effect	–
CC(C)NCC(O)COc1ccc(COCCOC(C)C)cc1 (stereo not drawn) [Bisoprolol]	117	118	108	111	80.3	80.7	79.7	87.5	124	112	95.2	119	85.7	0	significant inhibition effect	–
CCCCNc1cc(C(=O)O)cc(S(N)(=O)=O)c1Oc1ccccc1 [Bumetanide]	67.6	66.8	86	79.5	69.9	105	98.8	92.6	88.2	116	72.7	98.6	98.3	0	significant inhibition effect	–
O=C(O)c1cc(=O)c2ccccc2o1 [Chromocarb]	63.4	72.8	95.6	67.6	81.8	78.8	100	97.2	61.1	100	88.3	72.5	110	0	significant inhibition effect	–
Cc1cccc(Cc2c[nH]cn2)c1C [Detomidine HCl]	84.8	133	102	88.8	68.5	90.6	91	74.2	81.1	106	89.2	91	105	0	significant inhibition effect	–
Cc1[nH]c(=O)c(C#N)cc1-c1ccncc1 [Milrinone (Primacor), Milrinone]	–	104	98.5	99	130	86.2	92.9	–	90.9	98.5	92	90.5	112	0	significant inhibition effect	–
Cc1cccc(C)c1N=C1NCCCS1 [Xylazine HCl]	–	–	–	–	–	–	–	–	–	–	–	–	116	0	significant inhibition effect	viability at 10 µM ([1]; A-375, Table 3, drug 10 μM, 72 hours): 63.5%; viability at 10 µM ([3]; HepG2, Table 3, drug 10 μM, 72 hours): 83.5%; viability at 10 µM ([4]; Table 3, drug 10 μM, 72 hours): 65.1%; viability at 10 µM ([5]; Table 3, drug 10 μM, 72 hours): 86.3%; viability at 10 µM ([6]; NCI-H1650, Table 3, drug 10 μM, 72 hours): 67.2%; viability at 10 µM ([7]; MKN-45, Table 3, drug 10 μM, 72 hours): 88.7%; viability at 10 µM ([8]; Table 3, drug 10 μM, 72 hours): 61.5%; viability at 10 µM ([9]; A549, Table 3, drug 10 μM, 72 hours): 71.7%; viability at 10 µM ([10]; MCF7, Table 3, drug 10 μM, 72 hours): 104%; viability at 10 µM ([11]; Table 3, drug 10 μM, 72 hours): 105%; viability at 10 µM ([12]; Table 3, drug 10 μM, 72 hours): 96.6%
